By EC50 is commonly meant the midpoint of the concentration-response curve. A low value points to a more potent agent.

For one data set, the system named is CYP1A1 enzyme. Put plainly: Induction of CYP1A1 enzyme in HepG2 cells, EROD assay. It is filed as cell-based, human. The settings on record: 10 uM, 24 h. The procedure:
(§1) The formation of resorufin is quantified by fluorometry with a fluorescence plate reader. Fluorescence is determined at λex 570 nm and λem 590 nm. The amount of resorufin is calculated from a standard curve generated using 0 to 1 μM resorufin in water at ½ log dilutions. The remaining (i.e. all cells present at the beginning of analysis, since only supernatant is taken to assay EROD) live cells are subsequently utilized for the MIT cytotoxicity assay. MTT is made up in serum-free medium at 5 mg/ml. then added to the cells giving a final concentration of 10% (0.5 mg/ml MTT final) then incubated for 2 h. The medium is carefully removed, then MTT formazan is solubilized by adding 200 μl of DMSO and subsequently mixed on a plate shaker. The absorbance is measured spectra photometrically at 550 nm and background absorbance at 690 nm is subtracted. A standard curve generated using MIT formazan (dissolved in DMSO) from O—200 μM (0, 2, 5, 10, 20, 50, 100, 200 μM) is used to calculate the final experimental values which are then expressed as (wnol resarufin/mol MTT formazan) or as fold-Induction compared to solvent.

A further data set deals with CYP1A1. Described as above. The class given is cell-based, human. Conditions: human, probe 7-ethoxyresorufin (8 μM). The procedure:
as §1

The test system of a further data set is human sebocyte cells. Put plainly: MTT cytotoxicity assay in human cultured sebocytes after EROD. The class given is cell-based. As for the experimental part: The essential methodology for culture and handling of human cultured sebocytes has been described in earlier examples for HEPG2 and NHK cells. Cells are seeded at between 1×10^4 and 2.5×10^4 cells/well in a 96-well microtitre plate. […] The formation of resorufin is quantified by fluorometry with a fluorescence plate reader. Fluorescence is determined at λex 570 nm and λem 590 nm. The amount of resorufin is calculated from a standard curve generated using 0 to 1 μM resorufin in water at ½ log dilutions. The remaining (i.e. all cells present at the beginning of analysis, since only supernatant is taken to assay EROD) live cells are subsequently utilized for the MU cytotoxicity assay. MU is made up in serum-free medium at 5 mg/mi. then added to the cells giving a final concentration of 10% (0.5 mg/ml MIT final) then incubated for 2 h. The medium is carefully removed, then MIT formazan is solubilized by adding 200 μl of DMSO and subsequently mixed on a plate shaker. The absorbance is measured spectrophotometrically at 550 nm and background absorbance at […] is subtracted. A standard curve generated using MTT formazan (dissolved in DMSO) from O—200 μM (0, 2, 5, 10, 20, 50, 100, 200 μM) is used to calculate the final experimental values which are then expressed as (μmol resorufin/mol MTT formazan) or as fold-induction compared to solvent.
In general terms: Tetrazolium dyes change colour on reduction, which living cells bring about.

In data set [1] the target is T1, Aryl Hydrocarbon Receptor (Homo sapiens, UniProt P35869).
T1 construct: endogenous in cells; host or cells: Normal human keratinocytes (NHK) transduced with the lentivector plox-XRE TATA-Luc (reporter only)
T1 sequence (P35869 11-848): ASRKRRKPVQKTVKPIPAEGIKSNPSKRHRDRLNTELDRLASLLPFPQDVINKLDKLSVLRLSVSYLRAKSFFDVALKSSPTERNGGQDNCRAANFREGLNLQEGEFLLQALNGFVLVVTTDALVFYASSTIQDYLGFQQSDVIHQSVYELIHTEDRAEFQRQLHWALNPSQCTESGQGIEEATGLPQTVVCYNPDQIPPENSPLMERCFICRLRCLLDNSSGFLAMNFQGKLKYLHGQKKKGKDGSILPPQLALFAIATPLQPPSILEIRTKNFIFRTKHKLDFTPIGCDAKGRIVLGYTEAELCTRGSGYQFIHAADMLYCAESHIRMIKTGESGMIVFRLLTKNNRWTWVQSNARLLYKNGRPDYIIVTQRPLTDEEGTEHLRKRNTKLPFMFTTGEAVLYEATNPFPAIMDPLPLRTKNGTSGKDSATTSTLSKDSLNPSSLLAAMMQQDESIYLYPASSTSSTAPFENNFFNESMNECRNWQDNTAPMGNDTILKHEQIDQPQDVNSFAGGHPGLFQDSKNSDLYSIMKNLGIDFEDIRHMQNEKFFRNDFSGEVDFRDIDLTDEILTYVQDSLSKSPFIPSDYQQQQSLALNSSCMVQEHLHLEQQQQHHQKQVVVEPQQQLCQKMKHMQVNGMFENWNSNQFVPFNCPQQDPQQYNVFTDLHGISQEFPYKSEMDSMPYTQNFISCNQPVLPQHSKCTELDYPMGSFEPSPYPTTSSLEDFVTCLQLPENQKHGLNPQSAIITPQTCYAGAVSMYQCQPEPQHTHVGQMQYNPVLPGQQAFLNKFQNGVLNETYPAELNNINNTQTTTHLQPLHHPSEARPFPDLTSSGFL
Put plainly: AhR activation luciferase reporter in Hep G2-plox-XRE TATA-Luc cells. The class given is cell-based. Conditions: treatment for 24 h with 1-10 uM. The procedure:
AhR activation is measured in HEP G2 cells (hepatocytes, Hep G2 is a human liver carcinoma cell line) stably transfected with the lentivector plox-XRE TATA-Luc. The Hep G2 cells are cultured in a growing media consisting of DM EM (Glbco)+10% fetal bovine serum+penicillin+streptomycin. At D0, the Hep G2 cells are seeded into 12-well plates in proportions of approximately 30,000 cells/cm^2. After 24 h, the medium is replaced with fresh medium and the cells are transduced with the lentivector plox-XRE TATA-Luc. After 48 h, the cells are subcultured and maintained in culture, and tested for their reactivity to 3-phenyl-1H-benzo[f]chromen-1-one. The tests are carried out using the luciferase reporter assay system kit from Promega. At D0, the cells are seeded at a density of approximately 60% confluence, and then treated, at D1, with the test substance diluted to various concentrations in the appropriate culture medium. At D2, the cells are lysed in CLB buffer, and the lysate is clarified by centrifugation for 5 min at 10 000 g. The luciferase activity is measured in 20 microliters of lysate as recommended by the supplier, using the luminoskan luminometer (Thermo). […] Data is processed and ECso's can be calculated from standard data monitoring software.
A general note: Reporter assays use an easily measured gene product as a stand-in for the process of interest.

Consider `O=c1cc(-c2ccccc2)oc2ccc3ccccc3c12` [D, 3-Phenyl-1H-benzo[f]chromen-1-one, reference compound], for which, in the data set on CYP1A1 enzyme, the “% change vs. TCDD EROD (HepG2) at 10 uM” value is recorded as 19%. Further, the EC50 at 24 h in the data set on CYP1A1 worked out at 1000 nM. In the data set with human sebocyte cells, the Toxicity threshold was found to be 30 µM. Further, in data set [1], the “induction of the luciferase activity” value was “significant induction”.

The values above are taken from patent US20180118707A1, “BETA-NAPHTHOISOFLAVONES, COMPOSITIONS CONTAINING, AND USES OF, SAME” (Thesan Pharmaceuticals, Inc., priority 2015, published 2018).
